Results taken from patent US9586959B2, “Substituted tricyclic heterocycles as histamine 4 receptor inhibitors” (C&C RESEARCH LABORATORIES, priority 2011, dated 2017).
Structures can show the parent of a compound that is named as a salt.

molecular target: human histamine 3 receptor (hH3R) (Homo sapiens (Human), UniProt Q9Y5N1); assay: Binding affinity of human histamine 3 receptor (hH3R), [3H] labeled N-α-methylhistamine displacement; conditions: hH3R-overexpressed cell membrane, [3H] N-α-methylhistamine
Protocol: 10 μL of the prepared compound solution was allocated in each well of a 96-well plate, and then 10 μL of 200 μM (R)(−)-α-methylhistamine (RaMH) diluted with analysis buffer and 1% of DMSO were transferred to each well to calculate non-specific binding and total binding degree. 15 μg of human histamine 3 receptor-overexpressed cell membrane (PerkinElmer) was diluted with 180 μL of analysis buffer solution (50 mM tris-HCl pH 7.4, 5 mM MgCl2), and that was transferred to each well. [^3H] labeled Na-methylhistamine (PerkinElmer) was diluted into […], 10 μL of that was added to each well, and then it was kept in a 27° C. incubator for 30 minutes. After the reaction, 200 μL of the mixture was transferred to a glass fiber plate in which 0.5% polyethylene amine was presoaked, and then non-binding [^3H] labeled Na-methylhistamine was removed in vacuum. After 5 times washing with 200 μL of washing buffer solution (50 mM tris-HCl, pH 7.4), the plate was dried in a 37° C. oven for 18 hours. 100 μL of betascint cocktail solution was added to each well, and after 1 hour CPM of [^3H] labeled N-α-methylhistamine was measured by using Wallac beta-counter TriLux. The binding affinity (IC50) of the human histamine 3 receptor for the present invention was analyzed by an Excel program, and the results of analysis are shown in Table 2.

human histamine 3 receptor (hH3R), sequence (Q9Y5N1 whole entry): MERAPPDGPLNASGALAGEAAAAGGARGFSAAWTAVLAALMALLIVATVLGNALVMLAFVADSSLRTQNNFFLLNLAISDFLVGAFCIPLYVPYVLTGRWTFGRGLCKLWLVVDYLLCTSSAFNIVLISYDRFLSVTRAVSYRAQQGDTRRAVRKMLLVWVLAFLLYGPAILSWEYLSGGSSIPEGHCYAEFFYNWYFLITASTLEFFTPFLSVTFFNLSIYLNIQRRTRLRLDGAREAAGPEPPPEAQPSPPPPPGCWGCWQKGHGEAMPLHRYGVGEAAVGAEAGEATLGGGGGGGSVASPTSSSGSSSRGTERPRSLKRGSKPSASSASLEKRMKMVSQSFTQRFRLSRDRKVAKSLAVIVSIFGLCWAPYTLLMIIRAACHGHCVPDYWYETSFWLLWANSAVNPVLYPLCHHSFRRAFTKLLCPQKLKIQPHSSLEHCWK

Row | Structure (SMILES) | IC50
1 | Cc1cnc2c(c1)nc(N1CCN(C)CC1)c1nncn12 [Compound 1, 3-Methyl-6-(4-methylpiperazin-1-yl)pyrido[3,2-e][1,2,4]triazolo[4,3-a]pyrazine] | > 100 µM
2 | CNC1CN(c2nc3ncc(Cl)cc3c3ncnn23)C1 [Compound 36, 1-(9-Chloropyrido[3,2-e][1,2,4]triazolo[1,5-c]pyrimidin-5-yl)-N-methylazetidin-3-amine] | > 100 µM
3 | CNC1CN(c2nc3nc(C)c(Br)cc3n3cnnc23)C1 [Compound 99, 1-(8-bromo-7-methylpyrido[2,3-e][1,2,4]triazolo[4,3-a]pyrazin-4-yl)-N-methylazetidin-3-amine] | > 100 µM
4 | Clc1cnc2nc(N3CCNCC3)n3ncnc3c2c1 [Compound 37, 9-Chloro-5-(piperazin-1-yl)pyrido[3,2-e][1,2,4]triazolo[1,5-c]pyrimidine] | > 100 µM
5 | CCc1nc2c3cc(Cl)cnc3nc(N3CCN(C)CC3)n2n1 [Compound 41, 9-Chloro-2-ethyl-5-(4-methylpiperazin-1-yl)pyrido[3,2-e][1,2,4]triazolo[1,5-c]pyrimidine] | > 100 µM
6 | CNC1CN(C2=Nc3ncc(Br)cc3N3C[C@@H](C)N=C23)C1 [Compound 106, (R)-1-(8-bromo-2-methyl-1,2-dihydroimidazo[1,2-a]pyrido[2,3-e]pyrazin-4-yl)-N-methylazetidin-3-amine] | > 100 µM
7 | CNC1CN(c2nc3ncc(Br)cc3n3cccc23)C1 [Compound 115, 1-(2-bromopyrido[2,3-e]pyrrolo[1,2-a]pyrazin-6-yl)-N-methylazetidin-3-amine] | > 100 µM
8 | COCc1nc2c3cc(Cl)cnc3nc(N3CCN(C)CC3)n2n1 [Compound 40, 9-Chloro-2-(methoxymethyl)-5-(4-methylpiperazin-1-yl)pyrido[3,2-e][1,2,4]triazolo[1,5-c]pyrimidine] | > 100 µM
9 | CNC1CN(C2=Nc3ncc(Br)cc3N3C[C@H](C)N=C23)C1 [Compound 105, (S)-1-(8-bromo-2-methyl-1,2-dihydroimidazo[1,2-a]pyrido[2,3-e]pyrazin-4-yl)-N-methylazetidin-3-amine] | > 100 µM
10 | Cc1nc2c(N3CC(N(C)C(=O)OC(C)(C)C)C3)nc3ncc(Cl)cc3c2o1 [Compound 90, tert-Butyl (1-(8-chloro-2-methyloxazolo[4,5-c][1,8]naphthylidine-4-yl)azetidin-3-yl)(methyl)carbamate] | > 100 µM
11 | Clc1cnc2nc(N3CC4CCCNC4C3)c3nncn3c2c1 (stereo not shown) [Compound 82, 8-Chloro-4-(hexahydro-1H-pyrrolo[3,4-b]pyridin-6(2H)-yl)pyrido[2,3-e][1,2,4]triazolo[4,3-a]pyrazine] | > 100 µM
12 | CN1CC2CN(c3nc4ncc(Br)cc4n4cnnc34)CC2C1 (stereo not shown) [Compound 71, 8-Bromo-4-(5-methylhexahydropyrrolo[3,4-c]pyrrole-2(1H)-yl)pyrido[2,3-e][1,2,4]triazolo[4,3-a]pyrazine] | > 100 µM
13 | CN1CCCC2CN(c3nc4ncc(Cl)cc4n4cnnc34)CC21 (stereo not shown) [Compound 83, 8-Chloro-4-(1-methylhexahydro-1H-pyrrolo[3,4-b]pyridin-6(2H)-yl)pyrido[2,3-e][1,2,4]triazolo[4,3-a]pyrazine] | > 100 µM
14 | CN1CC2CN(c3nc4ncc(Cl)cc4n4cnnc34)CC2C1 (stereo not shown) [Compound 70, 8-Chloro-4-(5-methylhexahydropyrrolo[3,4-c]pyrrole-2(1H)-yl)pyrido[2,3-e][1,2,4]triazolo[4,3-a]pyrazine] | > 100 µM
15 | CN1CCN(c2nc3cccnc3n3cnnc23)CC1 [Compound 6, 6-(4-Methylpiperazin-1-yl)pyrido[3,2-e][1,2,4]triazolo[4,3-a]pyrazine] | > 100 µM
16 | CNC1CN(c2nc3ncc(Br)cc3c3cc(C)nn23)C1 [Compound 109, 1-(9-bromo-2-methylpyrazolo[1,5-c]pyrido[3,2-e]pyrimidin-5-yl)-N-methylazetidin-3-amine] | > 100 µM
17 | CNC1CN(c2nc3ncc(Br)cc3n3cc(C)nc23)C1 [Compound 108, 1-(8-bromo-2-methylimidazo[1,2-a]pyrido[2,3-e]pyrazin-4-yl)-N-methylazetidin-3-amine] | > 100 µM

The next lines start with the values.

Row | IC50 | Structure (SMILES)
18 | > 100 µM | CN(C)C1CN(c2nc3ncc(Br)cc3n3cnnc23)C1 [Compound 85, 1-(8-Bromopyrido[2,3-e][1,2,4]triazolo[4,3-a]pyrazin-4-yl)-N,N-dimethylazetidin-3-amine]
19 | > 100 µM | CN[C@@H]1CCN(c2nc3cc(Cl)cnc3n3cnnc23)C1 [Compound 11, (R)-1-(3-chloropyrido[3,2-e][1,2,4]triazolo[4,3-a]pyrazin-6-yl)-N-methylpyrrolidin-3-amine]
20 | > 100 µM | Clc1cnc2nc(N3CCCNCC3)c3nncn3c2c1 [Compound 79, 8-Chloro-4-(1,4-diazepan-1-yl)pyrido[2,3-e][1,2,4]triazolo[4,3-a]pyrazine]
21 | > 100 µM | CN[C@@H]1CCN(c2nc3ncc(Cl)cc3n3cnnc23)C1 [Compound 10, (R)-1-(8-chloropyrido[2,3-e][1,2,4]triazolo[4,3-a]pyrazin-4-yl)-N-methylpyrrolidin-3-amine]
22 | > 100 µM | Clc1cnc2nc(N3CCN(C4CC4)CC3)c3nncn3c2c1 [Compound 76, 8-Chloro-4-(4-cyclopropylpiperazin-1-yl)pyrido[2,3-e][1,2,4]triazolo[4,3-a]pyrazine]
23 | > 100 µM | CCc1cnc2nc(N3CC(NC)C3)c3nncn3c2c1 [Compound 56, 1-(8-Ethylpyrido[2,3-e][1,2,4]triazolo[4,3-a]pyrazin-4-yl)-N-methylazetidin-3-amine]
24 | > 100 µM | CC1CN(c2nc3ncc(Cl)cc3n3cnnc23)CC(C)N1C (stereo not shown) [Compound 22, 8-Chloro-4-(3,4,5-trimethylpiperazin-1-yl)pyrido[2,3-e][1,2,4]triazolo[4,3-a]pyrazine]
25 | > 100 µM | CC1(N)CN(c2nc3ncc(Br)cc3n3cnnc23)C1 [Compound 72, 1-(8-Bromopyrido[2,3-e][1,2,4]triazolo[4,3-a]pyrazin-4-yl)-3-methylazetidin-3-amine]
26 | > 100 µM | CNC1CN(c2nc3ncc(-c4ccco4)cc3n3cnnc23)C1 [Compound 114, 1-(8-(furan-2-yl)pyrido[2,3-e][1,2,4]triazolo[4,3-a]pyrazin-4-yl)-N-methylazetidin-3-amine]
27 | > 100 µM | Cc1nnc2c(N3CCN(C)CC3)nc3ncc(Cl)cc3n12 [Compound 14, 8-Chloro-1-methyl-4-(4-methylpiperazin-1-yl)pyrido[2,3-e][1,2,4]triazolo[4,3-a]pyrazine]
28 | > 100 µM | CNC1CN(c2nc3ncc(N)cc3n3cnnc23)C1 [Compound 112, 4-(3-(methylamino)azetidin-1-yl)pyrido[2,3-e][1,2,4]triazolo[4,3-a]pyrazin-8-amine]
29 | > 100 µM | CN1CCN(c2nc3ncccc3n3cnnc23)CC1 [Compound 3, 4-(4-Methylpiperazin-1-yl)pyrido[2,3-e][1,2,4]triazolo[4,3-a]pyrazine]
30 | > 100 µM | NC1CN(c2nc3ncc(Cl)cc3n3cnnc23)C1 [Compound 8, 1-(8-Chloropyrido[2,3-e][1,2,4]triazolo[4,3-a]pyrazin-4-yl)azetidin-3-amine]
31 | > 100 µM | CN(C)C1CN(c2nc3ncc(Cl)cc3n3cnnc23)C1 [Compound 84, 1-(8-Chloropyrido[2,3-e][1,2,4]triazolo[4,3-a]pyrazin-4-yl)-N,N-dimethylazetidin-3-amine]
32 | > 100 µM | COc1nc2nc(N3CCNCC3)c3nncn3c2cc1Cl [Compound 61, 8-Chloro-7-methoxy-4-(piperazin-1-yl)pyrido[2,3-e][1,2,4]triazolo[4,3-a]pyrazine]
33 | > 100 µM | CNC1CN(c2nc3nc(O)c(Cl)cc3n3cnnc23)C1 [Compound 101, 8-chloro-4-(3-(methylamino)azetidin-1-yl)pyrido[2,3-e][1,2,4]triazolo[4,3-a]pyrazin-7-ol HCl salt]
34 | > 100 µM | OCCNc1nc2ncc(Cl)cc2n2cnnc12 [Compound 87, 2-((8-Chloropyrido[2,3-e][1,2,4]triazolo[4,3-a]pyrazin-4-yl)amino)ethanol]
35 | > 100 µM | CN[C@@H]1CCN(c2nc3ncc(Br)cc3n3cnnc23)C1 [Compound 81, (R)-1-(8-bromopyrido[2,3-e][1,2,4]triazolo[4,3-a]pyrazin-4-yl)-N-methylpyrrolidin-3-amine]
36 | > 100 µM | CNC1CN(c2nc3ncc(-c4ccccc4)cc3n3cnnc23)C1 [Compound 113, N-methyl-1-(8-phenylpyrido[2,3-e][1,2,4]triazolo[4,3-a]pyrazin-4-yl)azetidin-3-amine]
37 | > 100 µM | CN1CCN(c2nc3cc(Cl)cnc3n3cnnc23)CC1 [Compound 5, 3-Chloro-6-(4-methylpiperazin-1-yl)pyrido[3,2-e][1,2,4]triazolo[4,3-a]pyrazine]
38 | > 100 µM | N[C@@H]1CCN(c2nc3ncc(Cl)cc3n3cnnc23)C1 [Compound 30, (R)-1-(8-chloropyrido[2,3-e][1,2,4]triazolo[4,3-a]pyrazin-4-yl)pyrrolidin-3-amine]
39 | > 100 µM | Cc1nnc2c(N3CCNCC3)nc3ncc(Cl)cc3n12 [Compound 15, 8-Chloro-1-methyl-4-(piperazin-1-yl)pyrido[2,3-e][1,2,4]triazolo[4,3-a]pyrazine]
40 | 87 µM | CNC1CN(c2nc3ncc(Cl)cc3n3nc(C)nc23)C1 [Compound 97, 1-(8-Chloro-2-methylpyrido[2,3-e][1,2,4]triazolo[1,5-a]pyrazin-4-yl)-N-methylazetidin-3-amine]
